From ChEMBL document CHEMBL3526091, “Pharmacokinetics, metabolism, and excretion of the glycogen synthase kinase-3 inhibitor LY2090314 in rats, dogs, and humans: a case study in rapid clearance by extensive metabolism with low circulating metabolite exposure” (Drug Metab Dispos, 2013)

Assays:
[1] = Clearance in cancer patient at 60 mg for 60 mins treated 1/1 cycle/day; format: ADME, organism-based; design: dosed compound name LY2090314; settings: human, in vivo
[2] = Half life in cancer patient at 40 mg for 60 mins treated 1/1 cycle/day; format: ADME, organism-based; design: dosed compound name LY2090314; settings: human, in vivo
[3] = system: Rattus norvegicus; experiment: Clearance in Sprague-Dawley rat assessed as total radioactivity at 5 mg/kg, iv administered for 30 mins; format: ADME, organism-based; design: dose 5 mg/kg, dosed compound name [14C]LY2090314, route intravenous; settings: in vivo, 0.5 h
[4] = system: Canis familiaris; experiment: AUC (0 to infinity) in beagle dog assessed as total radioactivity at 5 mg/kg, iv administered for 30 mins; format: ADME, organism-based, Canis lupus familiaris, Plasma; design: dose 5 mg/kg, dosed compound name [14C]LY2090314, route intravenous, time infinity; settings: in vivo, 0.5 h
[5] = AUC (0 to infinity) in cancer patient at 60 mg for 60 mins treated 1/1 cycle/day; format: ADME, organism-based; design: dose 60 mg, time infinity, dosed compound name LY2090314; settings: human, plasma
[6] = Half life in cancer patient at 10 mg for 60 mins treated 1/1 cycle/day; format: ADME, organism-based; design: dosed compound name LY2090314; settings: human, in vivo
[7] = Half life in cancer patient at 10 mg for 60 mins treated 2/1 cycle/day; format: ADME, organism-based; design: dosed compound name LY2090314; settings: human, in vivo
[8] = Volume of distribution at steady state in cancer patient at 40 mg for 60 mins treated 1/8 cycle/day; format: ADME, organism-based; design: dosed compound name LY2090314; settings: human, in vivo, read-out: Vdss
[9] = Cmax in cancer patient at 40 mg for 60 mins treated 1/8 cycle/day; format: ADME, organism-based; design: dose 40 mg, dosed compound name LY2090314; settings: human, in vivo
[10] = Elimination half life in beagle dog at 5 mg/kg, iv administered for 30 mins; format: ADME, organism-based, Canis lupus familiaris; design: dose 5 mg/kg, dosed compound name [14C]LY2090314, route intravenous; settings: in vivo, read-out: beta t1/2 (converted)
[11] = system: Canis familiaris; experiment: Tmax in beagle dog assessed as total radioactivity at 5 mg/kg, iv administered for 30 mins; format: ADME, organism-based, Canis lupus familiaris; design: dose 5 mg/kg, dosed compound name [14C]LY2090314, route intravenous; settings: in vivo, 0.5 h
[12] = Drug recovery in Sprague-Dawley rat feces at 5 mg/kg, iv administered for 30 mins during 0 to 168 hrs time interval by radio analysis; format: ADME, organism-based; design: dose 5 mg/kg, dosed compound name [14C]LY2090314, route intravenous; settings: in vivo
[13] = Tmax in Sprague-Dawley rat at 5 mg/kg, iv administered for 30 mins; format: ADME, organism-based; design: dose 5 mg/kg, dosed compound name [14C]LY2090314, route intravenous; settings: in vivo
[14] = Clearance in Sprague-Dawley rat at 5 mg/kg, iv administered for 30 mins; format: ADME, organism-based; design: dose 5 mg/kg, dosed compound name [14C]LY2090314, route intravenous; settings: in vivo
[15] = Volume of distribution at steady state in cancer patient at 80 mg for 60 mins treated 1/1 cycle/day; format: ADME, organism-based; design: dosed compound name LY2090314; settings: human, in vivo, read-out: Vdss
[16] = Volume of distribution at steady state in cancer patient at 10 mg for 60 mins treated 2/1 cycle/day; format: ADME, organism-based; design: dosed compound name LY2090314; settings: human, in vivo, read-out: Vdss
[17] = system: Plasma; experiment: Plasma concentration in Sprague-Dawley rat at 5 mg/kg, iv administered for 30 mins; format: ADME, organism-based; design: dose 5 mg/kg, dosed compound name [14C]LY2090314, route intravenous; settings: in vivo, 0.5 h
[18] = Cmax in cancer patient at 120 mg for 60 mins treated 1/8 cycle/day; format: ADME, organism-based; design: dose 120 mg, dosed compound name LY2090314; settings: human, in vivo
[19] = Half life in cancer patient at 80 mg for 60 mins treated 1/8 cycle/day; format: ADME, organism-based; design: dosed compound name LY2090314; settings: human, in vivo
[20] = Tmax in cancer patient at 80 mg for 60 mins treated 1/1 cycle/day; format: ADME, organism-based; design: dosed compound name LY2090314; settings: human, in vivo
[21] = Drug recovery in beagle dog feces at 5 mg/kg, iv administered for 30 mins during 0 to 24 hrs time interval by radio analysis; format: ADME, organism-based, Canis lupus familiaris; design: dose 5 mg/kg, dosed compound name [14C]LY2090314, route intravenous; settings: in vivo
[22] = Half life in cancer patient at 120 mg for 60 mins treated 1/8 cycle/day; format: ADME, organism-based; design: dosed compound name LY2090314; settings: human, in vivo
[23] = Cmax in Sprague-Dawley rat at 5 mg/kg, iv administered for 30 mins; format: ADME, organism-based; design: dose 5 mg/kg, dosed compound name [14C]LY2090314, route intravenous; settings: in vivo
[24] = Clearance in cancer patient at 80 mg for 60 mins treated 1/8 cycle/day; format: ADME, organism-based; design: dosed compound name LY2090314; settings: human, in vivo
[25] = system: Plasma; experiment: Plasma concentration in beagle dog at 5 mg/kg, iv administered for 30 mins; format: ADME, organism-based, Canis lupus familiaris; design: dose 5 mg/kg, dosed compound name [14C]LY2090314, route intravenous; settings: in vivo, 0.5 h
[26] = AUC (0 to infinity) in cancer patient at 20 mg for 60 mins treated 2/1 cycle/day; format: ADME, organism-based; design: dose 20 mg, time infinity, dosed compound name LY2090314; settings: human, plasma
[27] = Elimination half life in Sprague-Dawley rat at 5 mg/kg, iv administered for 30 mins; format: ADME, organism-based; design: dose 5 mg/kg, dosed compound name [14C]LY2090314, route intravenous; settings: in vivo, read-out: beta t1/2 (converted)

- clearance [1]: 617 mL/min
- half-life [2]: 189 min
- CL [3]: 2430 mL/h/kg
- AUC [4]: 15067 ng·h/mL
- AUC(0-inf) [5]: 1600 ng·h/mL
- half-life [6]: 134 min
- half-life [7]: 146 min
- Vd [8]: 64.1 L
- Cmax [9]: 657 ng/mL
- half-life [10]: 39.7 min
- Tmax [11]: 30 min
- Radiolabel recovery [12]: 96.7%
- Tmax [13]: 30 min
- clearance [14]: 57.5 mL/min/kg
- Vd [15]: 86.3 L
- Vd [16]: 101 L
- Compound recovery [17]: 70.4%
- Cmax [18]: 768 ng/mL
- half-life [19]: 156 min
- Tmax [20]: 1 h
- Radiolabel recovery [21]: 39.8%
- half-life [22]: 183 min
- Cmax [23]: 1680 ng/mL
- clearance [24]: 765 mL/min
- Compound recovery [25]: 21.4%
- AUC(0-inf) [26]: 404 ng·h/mL
- half-life [27]: 21.5 min
SMILES: O=C1NC(=O)C(c2cnc3ccccn23)=C1c1cn2c3c(cc(F)cc13)CN(C(=O)N1CCCCC1)CC2 [LY-2090314]
